# Data from ChEMBL document CHEMBL4145521, “Regioselective synthesis of 3,4-diaryl-5-unsubstituted isoxazoles, analogues of natural cytostatic combretastatin A4” (Eur J Med Chem, 2018).
# Columns and labels:
# Assay type in all cases: functional
# HL-60(TB) = assay: Cytotoxicity against human HL-60(TB) cells assessed as cell growth at 0.01 uM incubated for 48 hrs by sulforhodamine B assay relative to control; settings: HL-60, 48 h, read-out: Activity
# SR = assay: Cytotoxicity against human SR cells assessed as cell growth at 0.01 uM incubated for 48 hrs by sulforhodamine B assay relative to control; settings: read-out: Activity
# NCI-H522 = assay: Cytotoxicity against human NCI-H522 cells assessed as cell growth at 0.1 uM incubated for 48 hrs by sulforhodamine B assay relative to control; settings: NCI-H522, 48 h, read-out: Activity
# HT-29 [1] = assay: Cytotoxicity against human HT-29 cells assessed as cell growth at 0.1 uM incubated for 48 hrs by sulforhodamine B assay relative to control; settings: HT-29, 48 h, read-out: Activity
# M14 = assay: Cytotoxicity against human M14 cells assessed as cell growth at 0.1 uM incubated for 48 hrs by sulforhodamine B assay relative to control; settings: M14, 48 h, read-out: Activity
# MDA-MB-435 [2] = assay: Cytotoxicity against human MDA-MB-435 cells assessed as cell growth at 0.1 uM incubated for 48 hrs by sulforhodamine B assay relative to control; settings: MDA-MB-435, 48 h, read-out: Activity
# SK-MEL-28 [3] = assay: Cytotoxicity against human SK-MEL-28 cells assessed as cell growth at 0.1 uM incubated for 48 hrs by sulforhodamine B assay relative to control; settings: SK-MEL-28, 48 h, read-out: Activity
# NCI/ADR-RES [4] = assay: Cytotoxicity against human NCI/ADR-RES cells assessed as cell growth at 0.1 uM incubated for 48 hrs by sulforhodamine B assay relative to control; settings: read-out: Activity
# SK-OV-3 = assay: Cytotoxicity against human SKOV3 cells assessed as cell growth at 0.1 uM incubated for 48 hrs by sulforhodamine B assay relative to control; settings: SK-OV-3, 48 h, read-out: Activity
# ACHN = assay: Cytotoxicity against human ACHN cells assessed as cell growth at 0.1 uM incubated for 48 hrs by sulforhodamine B assay relative to control; settings: read-out: Activity
# MDA-MB-468 = assay: Cytotoxicity against human MDA-MB-468 cells assessed as cell growth at 0.1 uM incubated for 48 hrs by sulforhodamine B assay relative to control; settings: MDA-MB-468, 48 h, read-out: Activity
# HCC 2998 [5] = assay: Cytotoxicity against human HCC2998 cells assessed as cell growth at 1 uM incubated for 48 hrs by sulforhodamine B assay relative to control; settings: HCC 2998, 48 h, read-out: Activity
# U-251 = assay: Cytotoxicity against human U251 cells assessed as cell growth at 1 uM incubated for 48 hrs by sulforhodamine B assay relative to control; settings: U-251, 48 h, read-out: Activity
# LOX IMVI = assay: Cytotoxicity against human LOXIMVI cells assessed as cell growth at 1 uM incubated for 48 hrs by sulforhodamine B assay relative to control; settings: read-out: Activity
# OVCAR-4 = assay: Cytotoxicity against human OVCAR4 cells assessed as cell growth at 1 uM incubated for 48 hrs by sulforhodamine B assay relative to control; settings: OVCAR-4, 48 h, read-out: Activity
# CAKI-1 = assay: Cytotoxicity against human Caki1 cells assessed as cell growth at 1 uM incubated for 48 hrs by sulforhodamine B assay relative to control; settings: CAKI-1, 48 h, read-out: Activity
# HCC 2998 [6] = assay: Cytotoxicity against human HCC2998 cells assessed as cell growth at 10 uM incubated for 48 hrs by sulforhodamine B assay relative to control; settings: HCC 2998, 48 h, read-out: Activity
# SK-MEL-28 [7] = assay: Cytotoxicity against human SK-MEL-28 cells assessed as cell growth at 10 uM incubated for 48 hrs by sulforhodamine B assay relative to control; settings: SK-MEL-28, 48 h, read-out: Activity
# SN12C = assay: Cytotoxicity against human SN12C cells assessed as cell growth at 10 uM incubated for 48 hrs by sulforhodamine B assay relative to control; settings: read-out: Activity
# HCT-116 = assay: Cytotoxicity against human HCT116 cells assessed as cell growth at 100 uM incubated for 48 hrs by sulforhodamine B assay relative to control; settings: HCT-116, 48 h, read-out: Activity
# HT-29 [8] = assay: Cytotoxicity against human HT-29 cells assessed as cell growth at 100 uM incubated for 48 hrs by sulforhodamine B assay relative to control; settings: HT-29, 48 h, read-out: Activity
# NCI/ADR-RES [9] = assay: Cytotoxicity against human NCI/ADR-RES cells assessed as cell growth at 100 uM incubated for 48 hrs by sulforhodamine B assay relative to control; settings: read-out: Activity
# PC-3 = assay: Cytotoxicity against human PC3 cells assessed as cell growth at 100 uM incubated for 48 hrs by sulforhodamine B assay relative to control; settings: PC-3, 48 h, read-out: Activity
# NCI-H23 = assay: Cytotoxicity against human NCI-H23 cells incubated for 48 hrs by sulforhodamine B assay; settings: NCI-H23, 48 h
# COLO 205 = assay: Cytotoxicity against human COLO205 cells incubated for 48 hrs by sulforhodamine B assay; settings: COLO 205, 48 h
# SNB-75 = assay: Cytotoxicity against human SNB75 cells incubated for 48 hrs by sulforhodamine B assay; settings: SNB-75, 48 h
# MDA-MB-435 [10] = assay: Cytotoxicity against human MDA-MB-435 cells incubated for 48 hrs by sulforhodamine B assay; settings: MDA-MB-435, 48 h
# SK-MEL-28 [11] = assay: Cytotoxicity against human SK-MEL-28 cells incubated for 48 hrs by sulforhodamine B assay; settings: SK-MEL-28, 48 h
# TK-10 = assay: Cytotoxicity against human TK10 cells incubated for 48 hrs by sulforhodamine B assay; settings: TK-10, 48 h
# MDA-MB-231 = assay: Cytotoxicity against human MDA-MB-231 cells incubated for 48 hrs by sulforhodamine B assay; settings: MDA-MB-231, 48 h
# [12] = read-out: LC50 (the source's name)
# [13] = read-out: pLC50 (the source's name) (converted)
structure (smiles),measurement,setting,value
COc1ccc(-c2nocc2-c2cc(OC)c(OC)c(OC)c2)cc1,growth at 0.01 µM,HL-60(TB),105%
same,growth at 0.01 µM,SR,99%
same,growth at 0.1 µM,NCI-H522,-12%
same,growth at 0.1 µM,HT-29 [1],13%
same,growth at 0.1 µM,M14,41%
same,growth at 0.1 µM,MDA-MB-435 [2],3%
same,growth at 0.1 µM,SK-MEL-28 [3],61%
same,growth at 0.1 µM,NCI/ADR-RES [4],34%
same,growth at 0.1 µM,SK-OV-3,60%
same,growth at 0.1 µM,ACHN,62%
same,growth at 0.1 µM,MDA-MB-468,55%
same,growth at 1 µM,HCC 2998 [5],40%
same,growth at 1 µM,U-251,22%
same,growth at 1 µM,LOX IMVI,43%
same,growth at 1 µM,OVCAR-4,49%
same,growth at 1 µM,CAKI-1,47%
same,growth at 10 µM,HCC 2998 [6],25%
same,growth at 10 µM,SK-MEL-28 [7],46%
same,growth at 10 µM,SN12C,34%
same,growth at 100 µM,HCT-116,-29%
same,growth at 100 µM,HT-29 [8],-36%
same,growth at 100 µM,NCI/ADR-RES [9],-7%
same,growth at 100 µM,PC-3,-13%
same,GI50,NCI-H23; read-out: GI50,0.283 µM
same,CC50,NCI-H23; [12],> 100 µM
same,TGI,NCI-H23; read-out: TGI,74.9 µM
same,GI50,NCI-H23; read-out: pGI50 (converted),0.282 µM
same,CC50,NCI-H23; [13],> 100 µM
same,TGI,NCI-H23; read-out: pTGI (converted),74.1 µM
same,GI50,COLO 205; read-out: GI50,0.0581 µM
same,CC50,COLO 205; [12],> 100 µM
same,TGI,COLO 205; read-out: TGI,1.91 µM
same,GI50,COLO 205; read-out: pGI50 (converted),0.0575 µM
same,CC50,COLO 205; [13],> 100 µM
same,TGI,COLO 205; read-out: pTGI (converted),1.91 µM
same,GI50,SNB-75; read-out: GI50,0.0772 µM
same,CC50,SNB-75; [12],> 100 µM
same,TGI,SNB-75; read-out: TGI,> 100 µM
same,GI50,SNB-75; read-out: pGI50 (converted),0.0776 µM
same,CC50,SNB-75; [13],> 100 µM
same,TGI,SNB-75; read-out: pTGI,> 100 µM
same,GI50,MDA-MB-435 [10]; read-out: GI50,0.0239 µM
same,CC50,MDA-MB-435 [10]; [12],> 100 µM
same,TGI,MDA-MB-435 [10]; read-out: TGI,0.13 µM
same,GI50,MDA-MB-435 [10]; read-out: pGI50 (converted),0.024 µM
same,CC50,MDA-MB-435 [10]; [13],> 100 µM
same,TGI,MDA-MB-435 [10]; read-out: pTGI (converted),0.129 µM
same,GI50,SK-MEL-28 [11]; read-out: GI50,4.96 µM
same,CC50,SK-MEL-28 [11]; [12],> 100 µM
same,TGI,SK-MEL-28 [11]; read-out: TGI,80.8 µM
same,GI50,SK-MEL-28 [11]; read-out: pGI50 (converted),5.01 µM
same,CC50,SK-MEL-28 [11]; [13],> 100 µM
same,TGI,SK-MEL-28 [11]; read-out: pTGI (converted),81.3 µM
same,GI50,TK-10; read-out: GI50,0.0792 µM
same,CC50,TK-10; [12],> 100 µM
same,TGI,TK-10; read-out: TGI,43.1 µM
same,GI50,TK-10; read-out: pGI50 (converted),0.0794 µM
same,CC50,TK-10; [13],> 100 µM
same,TGI,TK-10; read-out: pTGI (converted),42.7 µM
same,GI50,MDA-MB-231; read-out: GI50,0.45 µM
same,CC50,MDA-MB-231; [12],> 100 µM
same,TGI,MDA-MB-231; read-out: TGI,34.2 µM
same,GI50,MDA-MB-231; read-out: pGI50 (converted),0.447 µM
same,CC50,MDA-MB-231; [13],> 100 µM
same,TGI,MDA-MB-231; read-out: pTGI (converted),33.9 µM
